Source: patent publication US20100240746A1, “STEREOISOMERS OF TRICYCLODECAN-9-YL-XANTHOGENATE” (LUMAVITA AG, priority 2007, published 2010)
≈ marks a conversion by molar mass, not a printed value.

Key:
[1] = tested on: HPV-31-infected CIN612 9E keratinocytes; assay: Long-term study: cell proliferation and morphology of CIN612 9E cells over 9 passages; format: cell-based
Experimental: (§1) HPV-31 infected cells (3×10^6) were dispensed into 14.5 cm dishes containing fresh E medium and 1×10^6 cells of mitomycin C-treated 3T3 fibroblast feeders. The dishes were incubated in a CO2 incubator under 5% CO2 at 37° C. in 100% humidity. Human A431 epithelial cancer cells were used as HPV-uninfected negative controls. After 6 hr incubation, the cell culture medium was removed and fresh E medium containing 0.85 g/L NaHCO3 and a test compound at concentrations of 10 and 3.3 μg/mL, or control (interferon γ at 200 IU/mL) were added. For each concentration, 4 dishes were prepared. The dishes were incubated at 37° C. in a CO2 incubator. The culture medium was replaced to new E medium containing each concentration of the test compound or control in every 72 hrs. After seven days, or when untreated cells became confluent, one dish of each group was harvested for DNA/RNA extraction, followed by Southern/Northern Blot analysis; and one dish was trypsinized, cell number were determined and cells were seeded in three new dishes, treated and cultured as described above. This procedure was repeated for 9 passages. During these passages, morphology of cells and cell density were monitored.
Effect on cell proliferation. Cell numbers in the dishes harvested were determined in a Neubauer hematocytometer. The multiplication factor was determined at every step of passage. The cell number of each culture at the end of the passage was divided by the number of seeded cells at the start of each passage. The end point was reached when keratinocytes treated with a test compound stopped growing. Stop of cell growth was defined as a multiplication factor of no greater than 1.

HPV-31 specific DNA [2] = assay: Long-term study: HPV-31 specific DNA level (Southern blot); format: cell-based, human papilloma virus; details: for T50 DNA: at 10 μg/mL
Experimental: as §1
(§2) Effect on HPV-31 specific DNA and RNA: DNA and RNA were analyzed in Southern and Northern Blot gels for HPV-31 specific sequences. X-ray films were scanned and optical densities of HPV-31 specific DNA and major mRNA species were integrated. Time curves were established by plotting integrated values against number of passages for each treatment dose. The T50 (time required to reduce the level to 50% of control) was determined from the time curves from crossing points of time curves with a line parallel to the x-axis corresponding to 50% of integrals of untreated control sample.

[3] = molecular target: T1, phosphatidylcholine-specific phospholipase C (PC-PLC) (Bacillus cereus, UniProt P09598); assay: Amplex Red phosphatidylcholine-specific phospholipase C (PC-PLC) inhibition assay; format: biochemical, B. cereus; details: 30 min at 37° C., triplicate
T1 construct: purchased Invitrogen
T1 sequence (P09598 39-283 limits assumed): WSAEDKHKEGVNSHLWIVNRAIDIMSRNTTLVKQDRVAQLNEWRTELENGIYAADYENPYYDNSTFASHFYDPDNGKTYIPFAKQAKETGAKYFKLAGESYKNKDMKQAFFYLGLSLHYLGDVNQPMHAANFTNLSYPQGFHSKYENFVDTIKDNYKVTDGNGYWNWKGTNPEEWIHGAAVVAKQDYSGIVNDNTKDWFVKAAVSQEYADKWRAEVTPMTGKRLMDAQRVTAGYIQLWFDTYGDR
Experimental: (§3) The inhibitory activities of optically active potassium salts of (+)- and (−)-O-exo/C-exo-tricyclo [5.2.1.0^2,6]-dec-9-yl-xanthic acid 1A ((+)- and (−)-enantiomers 1A) against phosphatidylcholine-specific phospholipase C were evaluated, together with D609 and potassium salt of racemic O-exo/C-exo xanthic acid 1A (racemic 1A), using Amplex Red phosphatidylcholine-specific phospholipase C(PC-PLC) assay kit, which was obtained from Invitrogen (Calsbad, Calif.). D609 was obtained from Sigma Aldrich.
(§4) An Amplex Red stock solution (˜20 mM), a working reaction buffer, and a horseradish peroxidase stock solution (200 U/mL), a H2O2 working solution (20 mM), a choline oxidate stock solution (20 U/mL), an alkaline phosphatase stock solution (400 U/mL), and a B. cereus PC-PLC stock solution (10 U/mL) were prepared according to the instruction of the assay kit. The stock solution (100 mg/mL) for each test compound was also prepared by dissolving the compound in water 2 hr prior to the start of the experiment.
(§5) A working Amplex Red/HRP/lecithin solution was prepared by adding 200 μL of Amplex Red reagent stock solution, 100 μL of HRP stock solution, 200 μL of alkaline phosphatase stock solution, 100 μL of choline oxidase stock solution, and 78 μL of the lecithin solution to […] of the working reaction buffer. PC-PLC solution (0.2 U/mL) was prepared by diluting the PC-PLC stock solution with the working reaction buffer to the desired concentration.
(§6) The test compound (25 μL) at a serious of concentrations was pipetted into a 96 well plate. For uninhibited PC-PLC controls and non-PC-PLC controls, 25 μL of water was added. After the addition of 50 μL of the Amplex Red/HRP/lecithin working solution, the reaction was initiated by adding 25 μL of PC-PLC solution to each well. To the non-PC-PLC controls, 25 μL of water was added instead of PC-PLC solution. The experiment was performed in triplicate. The reactions were protected from light. After incubated for 30 min at 37° C., the reactions were measured with a fluorescence microplate reader using excitation at 550 nm and emission detection at 590 nm. The fluorescent data obtained were corrected for background fluorescence by subtracting the values obtained from the non-PC-PLC controls.

HPV-31 specific RNA [4] = assay: Short-term study: HPV-31 specific RNA expression (Northern blot); format: cell-based, human papilloma virus; details: 72 hrs
Experimental: (§7) Effect on HPV-31 specific DNA and RNA. HPV-31 infected cells (3×10^6) were dispensed into 14.5 cm dishes containing fresh E culture medium and 1×10^6 mitomycin C-treated J2 3T3 fibroblast feeders. After 6 hrs, fresh medium containing 0.85 g/L NaHCO3 and a test compound at a series of concentrations (0, 0.5, 1, 2, 4, 8, 16, and 32 μg/mL) were added. All samples were tested in duplicates at each concentration. After incubation at 37° C. for 72 hrs, the feeder cells were removed with 4 mM EDTA, and DNA and RNA was then isolated. The isolated DNA and RNA were analyzed in Southern and Northern Blot gels for HPV-31 specific sequences. Human A431 epithelial cancer cells were used as HPV-uninfected negative control. X-ray films were scanned and optical densities of HPV-31 specific DNA and major mRNA species were integrated.
(§8) Dose response curves were established by plotting integrated values against the concentrations of the test compound.

Calu-6 cells = assay: Cytotoxicity assay in Calu-6 cells (crystal violet); format: cell-based; details: 48 hr
Experimental: (§9) Calu-6 cells and RITA cells were grown in DMEM cell culture medium containing 10% fetal calf serum in CO2 incubator under 5% CO2 at 37° C. with 100% humidity.
(§10) For cytotoxicity assay, Calu-6 cells were seeded in 96 well plates at a density of 3×10^6 cells per plate in the DMEM cell culture medium. The plates were incubated at 37° C. in the presence of 5% CO2 for 24 hr. The DMEM cell culture medium in the plates was exchanged with fresh DMEM cell culture medium containing test compounds at a series of concentrations. The plates were incubated at 37° C. in the presence of 5% CO2 for 48 hr. The plates were then washed with PBS, fixed with 3% formaldehyde solution containing 0.9% NaCl for 1 min, washed by water for 10 sec, and dried overnight. For detection, the plates were stained with crystal violet solution for 5 min at room temperature, washed 5 times with water, and dried at room temperature overnight. After adding ethanol/acetic acid (99:1, v/v, […]) to each well, the plates were measured at 595 nm using an ELISA reader. A dose response curve was obtained for each compound tested by plotting the mean values of the optical densities against compound concentration.

HPV-31 specific RNA [5] = assay: Long-term study: HPV-31 specific RNA level (Northern blot); format: cell-based, human papilloma virus; details: for T50 RNA: at 10 μg/mL
Experimental: as §1, §2

HPV-31 specific DNA [6] = assay: Short-term study: HPV-31 specific DNA (Southern blot); format: cell-based, human papilloma virus; details: at 32 μg/mL, 72 hrs
Experimental: as §7, §8

[7] = tested on: bovine papilloma virus type I (BPV-1)-transformed HEF (HEF-BPV); assay: Inhibition of bovine papilloma virus, BPV-infected hamster embryo fibroblasts (HEF) cell proliferation assay; format: cell-based; details: Bos taurus papillomavirus 1; HEF-BPV, 72 hr, 37° C., pH 6.8; read-out: IC50
Experimental: Briefly, hamster embryo fibroblasts and bovine papilloma virus type I (BPV-1)-transformed HEF (HEF-BPV) were grown in Eagle's basal medium. […] and HEF cells were seeded in 96-well plates at a density of 0.5×10^6 cells per plate in DMEM cell culture medium containing 10% fetal calf serum at pH 6.8. The plates were then incubated in the presence of 5% CO2 in 100% humidity at 37° C. After 6 hr, the cell culture medium in the plates was exchanged with fresh DMEM cell culture medium containing test compounds at a series of concentrations. The plates were incubated at 37° C. for additional 72 hr. Cells in the plates were then washed with PBS, fixed with 3% formaldehyde solution containing 0.9% NaCl for 1 min, washed by water for 10 sec, and dried overnight. For detection, the plates were stained with crystal violet solution for 5 min at room temperature, washed 5 times with water, and dried at room temperature overnight. After adding ethanol/acetic acid (99:1, v/v, […]) to each well, the plates were measured at 595 nm using an ELISA reader.

[8] = molecular target: T2, B. cereus PC-PLC (phosphatidylcholine-specific phospholipase C) (Bacillus cereus, UniProt P09598); assay: Inhibition of phosphatidylcholine-specific phospholipase C (Amplex Red PC-PLC assay kit); format: biochemical
T2 construct: purchased Invitrogen
T2 sequence (P09598 39-283 limits assumed): as above
Experimental: as §3, §4, §5
as §6, with “To the non-PC-PLC controls, 25 μL of water was added instead of PC-PLC solution. The experiment was performed in triplicate. The reactions were protected from light.” left out

[9] = tested on: Herpes simplex virus type-2 (HSV-2); assay: Inhibition of HSV-2 (plaque assay; Calu-6 infected, RITA cells for plaques); format: cell-based
Experimental: as §9
For HSV-2 inhibition, Calu-6 cells were seeded in 96 well plates at a density of 3×10^6 cells per plate in the DMEM cell culture medium. The plates were incubated at 37° C. in the presence of 5% CO2 for 24 hr. The DMEM cell culture medium in the plates was removed and the cells were infected with Herpes simplex virus type-2 at 50 plaque forming units per well. After incubation at 37° C. for 60 min, test compounds in DMEM cell culture medium at a series of concentrations were added. The plates were incubated at 37° C. in the presence of 5% CO2 for 48 hr. The plates were frozen at −20° C. prior to further analysis. After thawing at room temperature, supernatants containing infectious virus particles were prepared by centrifuging the supernatant from each well at 18,000 g at 4° C. for 5 min. The supernatant was further diluted before assay.
RITA cells were seeded in 24 well Linbra plates at a density of 4×10^6 cells per plate in 2 mL of DMEM cell culture medium. The plates were incubated at 37° C. in the presence of 5% CO2 for 24 hr. After the removal of the cell culture medium, 0.1 mL of the diluted supernatants was added and the plates were incubated at 37 C for 1 hr. DMEM cell medium containing 10% fetal calf serum and 0.5% methyl cellulose was added and the plates were incubated at 37 for 48 hr. The plates were then washed with PBS, fixed with 3% formaldehyde solution containing 0.9% NaCl for 1 min, washed by water for 10 sec, and dried overnight. For detection, the plates were then stained with crystal violet solution for 5 min at room temperature, washed 5 times with water, and dried at room temperature overnight. The number of plaques was determined macroscopically. The number of plaques per well was then multiplied with the dilution factor. Dose response curves were obtained by plotting the number of plaques/0.1 mL against compound concentration. The therapeutic index was also calculated for each compound by dividing LD50 with IC50.

[10] = Cytotoxicity assay in Calu-6 cells; format: cell-based; details: human, 37° C., read-out: LD50
Experimental: as §9, §10

[11] = tested on: phosphatidylcholine-specific phospholipase C (PC-PLC); details: Amtmann 1996; Muller-Decker 1989; cited from earlier work

## S=C(S)OC1CC2CC1C1CCCC21 (single isomer, unassigned; enantiomer 1a) [(−)-Enantiomer 1A, (−)-O-exo/C-exo-tricyclo[5.2.1.0^2,6]-dec-9-yl-xanthic acid 1A]
[1]; 3.3 μg/mL, passage 1
  multiplication factor: 2.9
[1]; 3.3 μg/mL, passage 9
  multiplication factor: 1.1
[1]; 10 μg/mL, from passage 7 on
  multiplication factor: < 1
[1]; 10 μg/mL, passage 5
  multiplication factor: 2.4
[1]; 10 μg/mL, passage 6
  multiplication factor: 1.3
[1]; 10 μg/mL, passage 9
  multiplication factor: 0.1
HPV-31 specific DNA [2]; 10 μg/mL, after 6 passages
  number of viral genomes per cell remaining: < 5%
HPV-31 specific DNA [2]; 10 μg/mL, after 9 passages
  viral DNA remaining: < 1%
HPV-31 specific DNA [2]; 10 μg/mL, after a single passage
  reduction of the number of viral genomes per cell: more than 50%
HPV-31 specific DNA [2]; listed as (−)-enantiomer 1A
  T50 DNA: < 1 passages
HPV-31 specific DNA [2]; listed as Cmpd 1A
  T50 DNA: <1 passages
[3]
  IC50: 3.62 ± 0.17 mg/L (≈ 15.9 µM)
HPV-31 specific RNA [4]
  IC50 on the inhibition of HPV-31 specific RNA expression: 10.7 mg/L
Calu-6 cells
  LD50: 94.32 ± 7.33 µg/mL
HPV-31 specific RNA [5]; 10 μg/mL, after 9 passages
  viral RNA remaining: < 1%
HPV-31 specific RNA [5]; listed as (−)-enantiomer 1A
  T50 RNA: < 1 passages
HPV-31 specific RNA [5]; listed as Cmpd 1A
  T50 RNA: <1 passages
HPV-31 specific DNA [6]
  inhibition of HPV-31 specific DNA: 37.5%

## S=C(S)OC1CC2CC1C1CCCC21 (centres unmarked) [Compound D609, tricyclodecan-9-yl-xanthogenate]
[7]
  IC50: 21.6 ± 1.85 mg/L (≈ 94.8 µM)
[8]
  IC50: 89.7 µM
[9]; Human alphaherpesvirus 2, Calu-6 cells, 48 hr, 50 plaque forming units per well, read-out: IC50
  IC50: 30.2 ± 6.77 mg/L (≈ 132 µM)
[9]; LD50 (Calu-6) divided by IC50 (HSV-2), 2880 min
  Therapeutic Index: 3.5
[10]
  CC50 at 48 h: 105 ± 22 mg/L (≈ 461 µM)
[3]
  IC50: 20.49 ± 1.99 mg/L (≈ 89.7 µM)
[11]
  inhibition of phosphatidylcholine-specific phospholipase C: specific inhibitor
Calu-6 cells
  LD50: 105.18 ± 21.97 µg/mL
